Reference: US7109332B2, “2,4-dioxo-3-quinazolinylaryl sulfonylureas” (Portola Pharmaceuticals, Inc., priority 2003, dated 2006)

Tested on: ADP-induced human platelet aggregation
Assay: Inhibition of ADP-mediated platelet aggregation in vitro (PRP assay)
Type: cell-based
Conditions: 2 μM ADP, 96-well microtiter assay
Experimental: I. Inhibition of ADP-Mediated Platelet Aggregation In Vitro
The effect of testing the compound according to the invention on ADP-induced human platelet aggregation is preferably assessed in 96-well microtiter assay (see generally the procedures in Jantzen, H. M. et al. (1999) Thromb. Hemost. 81:111–117). Human venous blood is collected from healthy, drug-free volunteers into ACD (85 mM sodium citrate, 111 mM glucose, 71.4 mM citric acid) containing PGI2 (1.25 ml ACD containing 1.6 μM PGI2/10 ml blood; PGI2 was from Sigma, St. Louis, Mo.). Platelet-rich plasma (PRP) is prepared by centrifugation at 160×g for 20 minutes at room temperature. Washed platelets are prepared by centrifuging PRP for 10 minutes at 730×g and resuspending the platelet pellet in CGS (13 mM sodium citrate, 30 mM glucose, 120 mM NaCl; 2 ml CGS/10 ml original blood volume) containing 1U/ml apyrase (grade V, Sigma, St. Louis, Mo.). After incubation at 37° C. for 15 minutes, the platelets are collected by centrifugation at 730×g for 10 minutes and resuspended at a concentration of 3×10^8 platelets/ml in Hepes-Tyrode's buffer (10 mM Hepes, 138 mM NaCl, 5.5 mM glucose, 2.9 mM KCl, 12 mM NaHCO3, pH 7.4) containing 0.1% bovine serum albumin, 1 mM CaCl2 and 1 mM MgCl2. This platelet suspension is kept >45 minutes at 37° C. before use in aggregation assays.
Inhibition of ADP-dependent aggregation is preferably determined in 96-well flat-bottom microtiter plates using a microtiter plate shaker and plate reader similar to the procedure described by Frantantoni et al., Am. J. Clin. Pathol. 94, 613 (1990). All steps are performed at room temperature. The total reaction volume of 0.2 ml/well includes in Hepes-Tyrodes buffer/0.1% BSA: 4.5×10^7 apyrase-washed platelets, 0.5 mg/ml human fibrinogen (American Diagnostica, Inc., Greenwich, Conn.), serial dilutions of test compounds (buffer for control wells) in 0.6% DMSO. After about 5 minutes preincubation at room temperature, ADP is added to a final concentration of 2 μM which induces submaximal aggregation. Buffer is added instead of ADP to one set of control wells (ADP^− control). The OD of the samples is then determined at 490 nm using a microtiter plate reader (Softmax, Molecular Devices, Menlo Park, Calif.) resulting in the 0 minute reading. The plates are then agitated for 5 min on a microtiter plate shaker and the 5 minute reading is obtained in the plate reader. Aggregation is calculated from the decrease of OD at 490 nm at t=5 minutes compared to t=0 minutes and is expressed as % of the decrease in the ADP control samples after correcting for changes in the unaggregated control samples.
The table below provides activity for selected compounds of the invention, evaluated as described above. In the table below, activity in the PRP assay is provided as follows: +++, IC50<10 μM; ++, 10 μM<IC50<30 μM; and +, IC50>30 μM.

Row | Compound | IC50 [µM]
1 | Cc1nc(C)c(CNc2ccc3c(=O)n(-c4ccc(NC(=O)NS(=O)(=O)c5ccc(Cl)s5)cc4)c(=O)[nH]c3c2)s1 [Example 65] | > 30
2 | Cc1cc(NC(=O)NS(=O)(=O)c2cccs2)ccc1-n1c(=O)[nH]c2cc(NCc3ccc(Cl)cc3)ccc2c1=O [Example 16] | < 10
3 | Cn1ccnc1CNc1ccc2c(=O)n(-c3ccc(NC(=O)NS(=O)(=O)c4ccc(Cl)s4)cc3)c(=O)[nH]c2c1 [Example 77] | > 30
4 | O=C(Nc1ccc(-n2c(=O)[nH]c3cc(NCc4ccc(Cl)cc4)ccc3c2=O)cc1)NS(=O)(=O)c1ccc(Cl)s1 [Example 12] | < 10
5 | O=C(Nc1ccc(-n2c(=O)[nH]c3cc(NCc4ccc(Cl)s4)ccc3c2=O)cc1)NS(=O)(=O)c1ccc(Cl)s1 [Example 51] | < 10
6 | O=C(Nc1ccc(-n2c(=O)[nH]c3cc(NCc4ccsc4)ccc3c2=O)cc1)NS(=O)(=O)c1ccc(Cl)s1 [Example 57] | < 10
7 | O=C(Nc1ccc(-n2c(=O)[nH]c3cc(NCc4nc5ccccc5s4)ccc3c2=O)cc1)NS(=O)(=O)c1ccc(Cl)s1 [Example 94] | > 30
8 | Cc1c(F)cccc1CNc1ccc2c(=O)n(-c3ccc(NC(=O)NS(=O)(=O)c4ccc(Cl)s4)cc3)c(=O)[nH]c2c1 [Example 100] | < 10
9 | COc1cccc(CNc2ccc3c(=O)n(-c4ccc(NC(=O)NS(=O)(=O)c5ccc(Cl)s5)cc4)c(=O)[nH]c3c2)c1 [Example 41] | 10 to 30
10 | O=C(NS(=O)(=O)c1ccc(Cl)s1)c1ccc(-n2c(=O)[nH]c3cc(NCc4ccc(F)cc4)ccc3c2=O)cc1F [Example 113, 4-(7-(4-fluorobenzylamino)-2,4-dioxo-1,2-dihydroquinazolin-3(4H)-yl)-N-(5-chlorothiophen-2-ylsulfonyl)-2-fluorobenzamide] | < 10
11 | O=C(Nc1ccc(-n2c(=O)[nH]c3cc(NCc4cncs4)ccc3c2=O)cc1)NS(=O)(=O)c1ccc(Cl)s1 [Example 61] | 10 to 30
12 | Cc1csc(CNc2ccc3c(=O)n(-c4ccc(NC(=O)NS(=O)(=O)c5ccc(Cl)s5)cc4)c(=O)[nH]c3c2)c1 [Example 53] | 10 to 30
13 | O=C(NS(=O)(=O)c1ccc(Cl)s1)c1ccc(-n2c(=O)[nH]c3cc(NCc4ccc(F)cc4)ccc3c2=O)cc1 [Example 106, 4-(7-(4-fluorobenzylamino)-2,4-dioxo-1,2-dihydroquinazolin-3(4H)-yl)-N-(5-chlorothiophen-2-ylsulfonyl)benzamide] | < 10
14 | O=C(Nc1ccc(-n2c(=O)[nH]c3cc(NCc4ccc(F)cc4F)ccc3c2=O)cc1)NS(=O)(=O)c1ccc(Cl)s1 [Example 102] | > 30
15 | O=C(Nc1ccc(-n2c(=O)[nH]c3cc(NCc4ccc(F)cc4)ccc3c2=O)cc1)NS(=O)(=O)c1ccc(Cl)s1 [Example 21] | < 10
16 | O=C(Nc1ccc(-n2c(=O)[nH]c3cc(NCc4ccc(Cl)o4)ccc3c2=O)cc1)NS(=O)(=O)c1ccc(Cl)s1 [Example 72] | 10 to 30
17 | Cc1cc(-n2c(=O)[nH]c3cc(NCc4ccc(F)cc4)ccc3c2=O)ccc1NC(=O)NS(=O)(=O)c1ccc(Cl)s1 [Example 5, 1-(4-(7-(4-fluorobenzylamino)-2,4-dioxo-1,2-dihydroquinazolin-3(4H)-yl)-2-methylphenyl)-3-(5-chlorothiophen-2-ylsulfonyl)urea] | < 10
18 | O=C(Nc1ccc(-n2c(=O)[nH]c3cc(NCc4ccccc4)ccc3c2=O)cc1)NS(=O)(=O)c1ccc(Cl)s1 [Example 3] | < 10
